Experimental data reported in patent US4753953A, “Pyridonecarboxylic acid derivatives and antibacterial pharmaceutical compositions thereof” (priority 1985, dated 1988).
Values after ≈ are worked out from the molar mass of the structure shown. Like-named read-outs stand apart in the source and are kept apart here.

Legend:
[1] = test system: Staphylococcus aureus 209 P; assay: MIC, in vitro antibacterial activity (standard strains); format: cell-based; details: Staphylococcus aureus, 209P; 10^6 cells/ml; Gram +; read-out: MIC
S. aureus Smith = assay: as above; format: cell-based, Staphylococcus aureus; details: Staphylococcus aureus; 10^6 cells/ml; Gram +; read-out: MIC
S. epidermidis IID 866 = assay: as above; format: cell-based; details: Staphylococcus epidermidis, IID866; 10^6 cells/ml; Gram +; read-out: MIC
[2] = test system: Streptococcus pyogenes (S-8); assay: as above; format: cell-based; details: Streptococcus pyogenes; 10^6 cells/ml; Gram +; read-out: MIC
S. pyogenes IID 692 = assay: as above; format: cell-based, Streptococcus pyogenes; details: Streptococcus pyogenes, IID692; 10^6 cells/ml; Gram +; read-out: MIC
S. pneumoniae IID 552 = assay: as above; format: cell-based; details: Streptococcus pneumoniae, IID552; 10^6 cells/ml; Gram +; read-out: MIC
[3] = test system: Escherichia coli NIHJ JC-2; assay: as above; format: cell-based; details: Escherichia coli, NIHJJC2; 10^6 cells/ml; Gram -; read-out: MIC
E. coli ML 4707 = assay: as above; format: cell-based, Escherichia coli; details: Escherichia coli, ML4707, 10^6 cells/ml; Gram -; Table 1; read-out: MIC
[4] = test system: Proteus vulgaris IFO 3167; assay: as above; format: cell-based; details: Proteus vulgaris, IFO3167; 10^6 cells/ml; Gram -; read-out: MIC
P. mirabilis IID 994 = assay: as above; format: cell-based; details: Proteus mirabilis, IID994; 10^6 cells/ml; Gram -; read-out: MIC
[5] = test system: Klebsiella pneumoniae KY(GN)6445; assay: as above; format: cell-based; details: Klebsiella pneumoniae; 10^6 cells/ml; Gram -; read-out: MIC
K. pneumoniae 1-220S = assay: as above; format: cell-based, Klebsiella pneumoniae; details: Klebsiella pneumoniae, 1220S; 10^6 cells/ml; Gram -; read-out: MIC
[6] = test system: Enterobacter cloacae IID 977; assay: as above; format: cell-based; details: Enterobacter cloacae, IID977; 10^6 cells/ml; Gram -; read-out: MIC
Shigella sonnei IID 969 = assay: as above; format: cell-based; details: Shigella sonnei, IID969; 10^6 cells/ml; Gram -; read-out: MIC
Description: Minimal inhibitory concentrations (MICs) were determined in accordance with the method recommended by Japan Society of Chemotherapy.

[7] = test system: Pseudomonas aeruginosa V-1; assay: as above; format: cell-based; details: Pseudomonas aeruginosa, V1
P. maltophilia GIFU 2491 = assay: as above; format: cell-based; details: Stenotrophomonas maltophilia, GIFU2491; 10^6 cells/ml; Gram -; read-out: MIC
[8] = test system: Yersinia enterocolitica IID 981; assay: as above; format: cell-based; details: Yersinia enterocolitica, IID981; 10^6 cells/ml; Gram -; read-out: MIC
[9] = test system: Acinetobacter anitratus IID 876; assay: as above; format: cell-based; details: Acinetobacter calcoaceticus, IID876; 10^6 cells/ml; Gram -; read-out: MIC
[10] = test system: Alcaligenes faecalis 0114002; assay: as above; format: cell-based; details: Alcaligenes faecalis, 0114002; 10^6 cells/ml; Gram -; read-out: MIC
[11] = test system: Bacteroides fragilis GM 7000; assay: as above; format: cell-based; details: Bacteroides fragilis, GM7000; 10^6 cells/ml; Gram -; read-out: MIC
B. fragilis 0558 = assay: as above; format: cell-based, Bacteroides fragilis; details: Bacteroides fragilis, 0558; 10^6 cells/ml; Gram -; read-out: MIC
B. fragilis 25285 = assay: as above; format: cell-based, Bacteroides fragilis; details: Bacteroides fragilis, 25285; 10^6 cells/ml; Gram -; read-out: MIC
F. necrophorum S-45 = assay: as above; format: cell-based; details: Fusobacterium necrophorum, S45; 10^6 cells/ml; Gram -; read-out: MIC
F. varium KYA 8501 = assay: as above; format: cell-based; details: Fusobacterium varium, KYA8501; 10^6 cells/ml; Gram -; read-out: MIC
E. limosum KYA 8486 = assay: as above; format: cell-based; details: Eubacterium limosum, KYA8486; 10^6 cells/ml; Gram +; read-out: MIC
[12] = test system: Propionibacterium acens 11828; assay: as above; format: cell-based; details: Propionibacterium, 11828; 10^6 cells/ml; Gram +; read-out: MIC
[13] = test system: Peptococcus magnus KY 017; assay: as above; format: cell-based; details: Finegoldia magna, KY017; 10^6 cells/ml; Gram +; read-out: MIC
[14] = test system: Clostridium difficile I-E; assay: as above; format: cell-based; details: Clostridioides difficile; 10^6 cells/ml; Gram +
C. perfringens KYA 13123 = assay: microbe, parasite or virus in culture; format: cell-based; details: Clostridium perfringens, KYA13123
C. ramosum = assay: MIC, in vitro antibacterial activity (standard strains); format: cell-based; details: Thomasclavelia ramosa; 10^6 cells/ml; Gram +; read-out: MIC
Pst. micros UPI 5464-1 = assay: as above; format: cell-based; details: Parvimonas micra, UPI54641; 10^6 cells/ml; Gram +; read-out: MIC
[15] = test system: Veillonella parvula KYA 10790; assay: as above; format: cell-based; details: Veillonella parvula, KYA10790; 10^6 cells/ml; Gram -; read-out: MIC
[16] = 10^6 cells/ml, Gram -, read-out: MIC

Compound	MIC [1] [µg/mL]	MIC (S. aureus Smith) [µg/mL]	MIC (S. epidermidis IID 866) [µg/mL]	MIC [2] [µg/mL]	MIC (S. pyogenes IID 692) [µg/mL]	MIC (S. pneumoniae IID 552) [µg/mL]	MIC [3] [µg/mL]	MIC (E. coli ML 4707) [µg/mL]	MIC [4] [µg/mL]	MIC (P. mirabilis IID 994) [µg/mL]	MIC [5] [µg/mL]	MIC (K. pneumoniae 1-220S) [µg/mL]	MIC [6] [µg/mL]	MIC (Shigella sonnei IID 969) [µg/mL]	MIC (P. maltophilia GIFU 2491) [µg/mL]	MIC [8] [µg/mL]	MIC [9] [µg/mL]	MIC [10] [µg/mL]	MIC [11] [µg/mL]	MIC (B. fragilis 0558) [µg/mL]	also measured
C[C@@H]1CN(c2c(F)cc3c(=O)c(C(=O)O)cn(C4CC4)c3c2Br)C[C@H]1N (relative stereo) [Example 32, 7-(trans-3-Amino-4-methyl-1-pyrrolidinyl)-8-bromo-1-cyclopropyl-6-fluoro-1,4-dihydro-4-oxo-3-quinolinecarboxylic acid]	0.025 (≈ 0.0589 µM)	0.025 (≈ 0.0589 µM)	0.05 (≈ 0.118 µM)	0.1 (≈ 0.236 µM)	0.2 (≈ 0.471 µM)	0.1 (≈ 0.236 µM)	0.0063 (≈ 0.0148 µM)	0.0125 (≈ 0.0295 µM)	0.0125 (≈ 0.0295 µM)	0.05 (≈ 0.118 µM)	0.025 (≈ 0.0589 µM)	0.05 (≈ 0.118 µM)	0.05 (≈ 0.118 µM)	0.0063 (≈ 0.0148 µM)	0.05 (≈ 0.118 µM)	0.025 (≈ 0.0589 µM)	0.025 (≈ 0.0589 µM)	0.1 (≈ 0.236 µM)	0.1 (≈ 0.236 µM)	0.05 (≈ 0.118 µM)	MIC [7]: 0.2 µg/mL (≈ 0.471 µM); MIC (B. fragilis 25285): 0.1 µg/mL (≈ 0.236 µM); MIC (F. necrophorum S-45): 0.1 µg/mL (≈ 0.236 µM); MIC (F. varium KYA 8501): 0.78 µg/mL (≈ 1.84 µM); MIC (E. limosum KYA 8486): 0.1 µg/mL (≈ 0.236 µM); MIC [12]: 1.56 µg/mL (≈ 3.68 µM); MIC [13]: 0.05 µg/mL (≈ 0.118 µM); MIC [14]: 0.78 µg/mL; MIC (C. perfringens KYA 13123): 0.2 µg/mL (≈ 0.471 µM); MIC (C. ramosum): 0.78 µg/mL (≈ 1.84 µM); MIC (Pst. micros UPI 5464-1): 0.1 µg/mL (≈ 0.236 µM); MIC [15]: 0.1 µg/mL (≈ 0.236 µM)
CCn1cc(C(=O)O)c(=O)c2cc(F)c(N3C[C@@H](N)[C@@H](C)C3)c(F)c21 (relative stereo) [Example 22, 7-(cis-3-Amino-4-methyl-1-pyrrolidinyl)-1-ethyl-6,8-difluoro-1,4-dihydro-4-oxo-3-quinolinecarboxylic acid]	0.1 (≈ 0.285 µM)	0.2 (≈ 0.569 µM)	0.2 (≈ 0.569 µM)	0.78 (≈ 2.22 µM)	0.78 (≈ 2.22 µM)	0.78 (≈ 2.22 µM)	0.05 (≈ 0.142 µM)	0.05 (≈ 0.142 µM)	0.05 (≈ 0.142 µM)	0.1 (≈ 0.285 µM)	0.05 (≈ 0.142 µM)	0.1 (≈ 0.285 µM)	0.1 (≈ 0.285 µM)	0.1 (≈ 0.285 µM)	0.78 (≈ 2.22 µM)	0.1 (≈ 0.285 µM)	0.39 (≈ 1.11 µM)	1.56 (≈ 4.44 µM)	3.13 (≈ 8.91 µM)	1.56 (≈ 4.44 µM)	MIC [7, 16]: 0.39 µg/mL (≈ 1.11 µM); MIC (B. fragilis 25285): 1.56 µg/mL (≈ 4.44 µM); MIC (F. necrophorum S-45): 3.13 µg/mL (≈ 8.91 µM); MIC (F. varium KYA 8501): 6.25 µg/mL (≈ 17.8 µM); MIC (E. limosum KYA 8486): 6.25 µg/mL (≈ 17.8 µM); MIC [12]: 25 µg/mL (≈ 71.2 µM); MIC [13]: 1.56 µg/mL (≈ 4.44 µM); MIC [14]: 6.25 µg/mL; MIC (C. perfringens KYA 13123): 0.78 µg/mL (≈ 2.22 µM); MIC (C. ramosum): 6.25 µg/mL (≈ 17.8 µM); MIC (Pst. micros UPI 5464-1): 0.78 µg/mL (≈ 2.22 µM); MIC [15]: 0.78 µg/mL (≈ 2.22 µM)
CNCC1CN(c2c(F)cc3c(=O)c(C(=O)O)cn(C4CC4)c3c2F)CC1C (centres unmarked) [Example 13, 1-Cyclopropyl-6,8-difluoro-1,4-dihydro-7-(3-methylaminomethyl-4-methyl-1-pyrrolidinyl)-4-oxo-3-quinolinecarboxylic acid]	0.05 (≈ 0.128 µM)	0.05 (≈ 0.128 µM)	0.05 (≈ 0.128 µM)	0.1 (≈ 0.255 µM)	0.2 (≈ 0.511 µM)	0.1 (≈ 0.255 µM)	0.05 (≈ 0.128 µM)	0.05 (≈ 0.128 µM)	0.05 (≈ 0.128 µM)	0.2 (≈ 0.511 µM)	0.05 (≈ 0.128 µM)	0.2 (≈ 0.511 µM)	0.2 (≈ 0.511 µM)	0.05 (≈ 0.128 µM)	0.39 (≈ 0.996 µM)	0.1 (≈ 0.255 µM)	0.1 (≈ 0.255 µM)	0.78 (≈ 1.99 µM)	0.78 (≈ 1.99 µM)	0.78 (≈ 1.99 µM)	MIC [7, 16]: 0.39 µg/mL (≈ 0.996 µM); MIC (B. fragilis 25285): 0.78 µg/mL (≈ 1.99 µM); MIC (F. necrophorum S-45): 0.39 µg/mL (≈ 0.996 µM); MIC (F. varium KYA 8501): 1.56 µg/mL (≈ 3.99 µM); MIC (E. limosum KYA 8486): 1.56 µg/mL (≈ 3.99 µM); MIC [12]: 1.56 µg/mL (≈ 3.99 µM); MIC [13]: ≤ 0.05 µg/mL; MIC [14]: 0.78 µg/mL; MIC (C. perfringens KYA 13123): 0.2 µg/mL (≈ 0.511 µM); MIC (C. ramosum): 0.78 µg/mL (≈ 1.99 µM); MIC (Pst. micros UPI 5464-1): 0.78 µg/mL (≈ 1.99 µM); MIC [15]: 0.78 µg/mL (≈ 1.99 µM)
CCNCC1CN(c2c(F)cc3c(=O)c(C(=O)O)cn(C4CC4)c3c2F)CC1C (centres unmarked) [Example 15, 1-Cyclopropyl-7-(3-ethylaminomethyl-4-methyl-1-pyrrolidinyl)-6,8-difluoro-1,4-dihydro-4-oxo-3-quinolinecarboxylic acid]	0.05 (≈ 0.123 µM)	0.05 (≈ 0.123 µM)	0.05 (≈ 0.123 µM)	0.1 (≈ 0.247 µM)	0.1 (≈ 0.247 µM)	0.1 (≈ 0.247 µM)	0.05 (≈ 0.123 µM)	0.05 (≈ 0.123 µM)	0.1 (≈ 0.247 µM)	0.1 (≈ 0.247 µM)	0.05 (≈ 0.123 µM)	0.2 (≈ 0.493 µM)	0.2 (≈ 0.493 µM)	0.05 (≈ 0.123 µM)	0.39 (≈ 0.962 µM)	0.2 (≈ 0.493 µM)	0.1 (≈ 0.247 µM)	0.78 (≈ 1.92 µM)	0.78 (≈ 1.92 µM)	0.39 (≈ 0.962 µM)	MIC [7, 16]: 0.78 µg/mL (≈ 1.92 µM); MIC (B. fragilis 25285): 0.39 µg/mL (≈ 0.962 µM); MIC (F. necrophorum S-45): 0.39 µg/mL (≈ 0.962 µM); MIC (F. varium KYA 8501): 1.56 µg/mL (≈ 3.85 µM); MIC (E. limosum KYA 8486): 1.56 µg/mL (≈ 3.85 µM); MIC [12]: 3.13 µg/mL (≈ 7.72 µM); MIC [13]: ≤ 0.05 µg/mL; MIC [14]: 0.78 µg/mL; MIC (C. perfringens KYA 13123): 0.1 µg/mL (≈ 0.247 µM); MIC (C. ramosum): 0.78 µg/mL (≈ 1.92 µM); MIC (Pst. micros UPI 5464-1): 0.78 µg/mL (≈ 1.92 µM); MIC [15]: 0.78 µg/mL (≈ 1.92 µM)
